Measurements as given in paper PMC9743128, “Phenotype-based screening rediscovered benzopyran-embedded microtubule inhibitors as anti-neuroinflammatory agents by modulating the tubulin–p65 interaction” (Experimental & Molecular Medicine, 2022).

Columns and labels:
[1] = tested on: IκB in J774A.1 cells; experiment: Western blot of IκB; format: cell-based; settings: murine macrophage cells; inhibited by MG132 pretreatment
Method: The proteome was analyzed by SDS‒PAGE and transferred to PVDF membranes (Bio-Rad; BR162-0177). The membranes were blocked with 2% BSA in Tris-buffered saline containing 0.1% Tween-20 (TBST) for 1 h. To detect the desired proteins, the membranes were incubated overnight at 4 °C with the primary antibodies—1:1000 dilution of α-tubulin (CST; #3873), β-tubulin (CST; #2146), IκB (CST; #4814), caspase-1 (CST; #24232), cleaved caspase-1 (CST; #89332), IL-1β (CST; #31202), cleaved IL-1β (CST; #63124), acetylated α-tubulin (CST; #5335), p65 (Abcam; ab16502), FLAG (Abcam; ab49763); and 1:2,000 dilution of GAPDH (CST; #2118), β-actin (CST; #4970), and LMNB1 (Abcam; ab16048). After washing with TBST, the resulting membranes were exposed to HRP-conjugated secondary antibody—1:5000 dilution of anti-rabbit (CST; #7074) and anti-mouse (CST; #7076)—for 1 h at room temperature. After washing with TBST, the membranes were incubated with an enhanced chemiluminescence (ECL) prime kit (Cytiva; RPN2232). Chemiluminescent signals from the desired proteins were detected using ChemiDoc. […]
To understand the inhibitory mechanism of p65 nuclear translocation by SB26019, the expression levels of p65, IκB, and tubulin monomers were monitored upon SB26019 treatment in murine macrophage cells. […] To test this hypothesis, we monitored protein‒protein interactions among p65, IκB, and tubulin with immunoprecipitation. […]

[2] = tested on: C57BL/6 mice; experiment: LPS neuroinflammation model; format: in vivo; settings: 2 or 5 mg/kg IP daily for 4 days, LPS 5 mg/kg on Day 2
Method: All experiments were carried out with 10-week-old female C57BL/6 mice (20–25 g). The animals were divided into six experimental groups of three mice in each experiment: Group 1, treated with vehicle; Group 2, treated with SB26019 {2 mg/kg body weight (mpk)}; Group 3, treated with SB26019 (5 mpk); Group 4, treated with LPS and vehicle; Group 5, treated with LPS and SB26019 (2 mpk); and Group 6, treated with LPS and SB26019 (5 mpk). SB26019 (2 or 5 mpk) or vehicle {distilled water containing 5% DMSO and 40% polyethylene glycol 400 (TCI; N0433)} was administered with IP injection daily for 4 days. Five mpk of LPS (Sigma; L2880) in PBS was administered by IP injection on Day 2 for a single challenge. All mice were sacrificed on Day 5.
Mice were anesthetized with a mixture of alfaxalone and xylazine (5:1 ratio) and transcardially perfused with cold PBS. Mouse brains were harvested and fixed using 10% NBF (Sigma; HT501128) for 2 h. After washing with PBS for 30 min three times, fixed brains were embedded in OCT compound (Leica; #3801480) for frozen coronal sectioning at a thickness of 7 μm. […]
The perfused brains were minced with a 10 T scalpel blade. […] Microglia in the interphase between 70% and 37% Percoll solution was transferred and washed with HBSS media. mRNA was extracted from the microglia and analyzed with qPCR. […]

Compound: COc1ccc2c(c1O)OC(C)(C)C=C2c1cccc2c1oc1ccccc12 [Compound 8]
- IκB degradation [1]: induced IκB degradation in a time- and dose-dependent manner
- Microglial activation (Iba-1-positive region of the brain) [2]: efficiently regulated microglial activation in all brain regions in a dose-dependent manner
- Transcription levels of cytokines and chemokines in brain microglia (qPCR) [2]: efficiently inhibited the LPS-mediated upregulation of cytokines and chemokines
